Consider 21 compounds from patent US9771327B2, “Compounds and methods for the treatment of cystic fibrosis” (FLATLEY DISCOVERY LAB, LLC, priority 2013, dated 2017).

For this assay, the target named is T1, human ΔF508-CFTR (Homo sapiens, UniProt P13569, DEL508-508).
T1 construct: expressed in transfected cells
Kind of assay: CFTR-YFP high throughput assay, CFTR corrector protocol (YFP iodide flux quench). Format: cell-based. The settings on record: FRT cells expressing human ΔF508-CFTR and YFP-H148Q/I152L, 24-26 h incubation with compound; for Emax: normalized to the positive control, read-out: EMAX (% Efficacy, EMAX normalized to the positive control); for EC50: stimulated with 20 μM Forskolin & 30 μM P3. On the procedure:
Assays for Detecting and Measuring the Effect of Compounds on dF508-CFTR Channels CFRT-YFP High Throughput Assay-CFTR Corrector Protocol:
This protocol is designed to selectively screen small molecule compounds for F508del CFTR corrector activities in the HTS YFP flux assay. In this protocol, the cells are incubated with testing compounds for 24 hours, washed with PBS, stimulated with forskolin and a standard potentiator, and read on a 384-well HTS plate reader, such as the Hamamatsu FDDD-6000.
YFP fluorescence intensity is acquired at high speed before and after iodide buffer is injected to the assay cells. Iodide enters the cells via active CFTR channels in the plasma membrane, and quenches the YFP fluorescence. The rate of fluorescence quenching is proportionally related to the total CFTR activities in the cell membrane. dF508-CFTR corrector accelerates YFP quenching by increasing the number of CFTR molecules in the testing cell plasma membrane.
This method was initially developed for bench top plate readers (Galietta et al., 2001), and was adapted to the HTS format (Sui et al. Assay Drug Dev. Technol. 2010).
Fisher Rat Thyroid (FRT) cells stably expressing both human ΔF508-CFTR and a halide-sensitive yellow fluorescent protein (YFP-H148Q/I152L 25,22) (Galietta et al., Am. J. Physiol Cell Physiol, 281(5), C1734, 2001) were cultured on plastic surface in Coon's modified Ham's F12 medium supplemented with FBS 10%, L-glutamine 2 mM, penicillin 100 U/ml, and streptomycin 100 μg/ml. G418 (0.75-1.0 mg/ml) and zeocin (3.2 ug/ml) were used for selection of FRT cells expressing ΔF508-CFTR and YFP. For primary screening, FRT cells were plated into 384-well black wall, transparent bottom microtiter plates (Costar; Corning Inc.) at a cell density of 20,000-40,000 per well. Test compound was applied to the cells at varying concentrations ranging from 2 nM-[…] in either a 2-fold or 3-fold dilution series. Cells were incubated in a cell culture incubator at 37° C. with 5% CO2 for 24-26 h. Assay plates were washed with DPBS media (Thermo, cat #SH30028.02) to remove unbound cells and compound. Stimulation media (25 μL) containing 20 μM Forskolin & 30 μM P3 [6-(Ethyl-phenyl-sulfonyl)-4-oxo-1,4-dihydro-quinoline-3-carboxylic acid 2-methoxy-benzylamide] in Hams F-12 coon's modified media was added to the plate wells and incubated at room temperature for 60-120 min. 25 μL of HEPES-PBS -I buffer (10 mM HEPES, 1 mM MgCl2, 3 mM KCl, 1 mM CaCl2, 150 mM NaI) was then added and fluorescence quench curves (Excitation 500 nm/Emission 540 nm; exposure 136 ms) were immediately recorded on an FDSS-6000 plate reader (Hamamatsu). Quench rates were derived from least squares fitting of the data as described by Sui et al. (2010).

Usually Emax stands for the greatest response seen or fitted, relative to the assay's reference. Usually EC50 stands for the concentration that produces a half-maximal response.

T1 sequence (P13569 with tags, fused parts or gaps DEL508-508): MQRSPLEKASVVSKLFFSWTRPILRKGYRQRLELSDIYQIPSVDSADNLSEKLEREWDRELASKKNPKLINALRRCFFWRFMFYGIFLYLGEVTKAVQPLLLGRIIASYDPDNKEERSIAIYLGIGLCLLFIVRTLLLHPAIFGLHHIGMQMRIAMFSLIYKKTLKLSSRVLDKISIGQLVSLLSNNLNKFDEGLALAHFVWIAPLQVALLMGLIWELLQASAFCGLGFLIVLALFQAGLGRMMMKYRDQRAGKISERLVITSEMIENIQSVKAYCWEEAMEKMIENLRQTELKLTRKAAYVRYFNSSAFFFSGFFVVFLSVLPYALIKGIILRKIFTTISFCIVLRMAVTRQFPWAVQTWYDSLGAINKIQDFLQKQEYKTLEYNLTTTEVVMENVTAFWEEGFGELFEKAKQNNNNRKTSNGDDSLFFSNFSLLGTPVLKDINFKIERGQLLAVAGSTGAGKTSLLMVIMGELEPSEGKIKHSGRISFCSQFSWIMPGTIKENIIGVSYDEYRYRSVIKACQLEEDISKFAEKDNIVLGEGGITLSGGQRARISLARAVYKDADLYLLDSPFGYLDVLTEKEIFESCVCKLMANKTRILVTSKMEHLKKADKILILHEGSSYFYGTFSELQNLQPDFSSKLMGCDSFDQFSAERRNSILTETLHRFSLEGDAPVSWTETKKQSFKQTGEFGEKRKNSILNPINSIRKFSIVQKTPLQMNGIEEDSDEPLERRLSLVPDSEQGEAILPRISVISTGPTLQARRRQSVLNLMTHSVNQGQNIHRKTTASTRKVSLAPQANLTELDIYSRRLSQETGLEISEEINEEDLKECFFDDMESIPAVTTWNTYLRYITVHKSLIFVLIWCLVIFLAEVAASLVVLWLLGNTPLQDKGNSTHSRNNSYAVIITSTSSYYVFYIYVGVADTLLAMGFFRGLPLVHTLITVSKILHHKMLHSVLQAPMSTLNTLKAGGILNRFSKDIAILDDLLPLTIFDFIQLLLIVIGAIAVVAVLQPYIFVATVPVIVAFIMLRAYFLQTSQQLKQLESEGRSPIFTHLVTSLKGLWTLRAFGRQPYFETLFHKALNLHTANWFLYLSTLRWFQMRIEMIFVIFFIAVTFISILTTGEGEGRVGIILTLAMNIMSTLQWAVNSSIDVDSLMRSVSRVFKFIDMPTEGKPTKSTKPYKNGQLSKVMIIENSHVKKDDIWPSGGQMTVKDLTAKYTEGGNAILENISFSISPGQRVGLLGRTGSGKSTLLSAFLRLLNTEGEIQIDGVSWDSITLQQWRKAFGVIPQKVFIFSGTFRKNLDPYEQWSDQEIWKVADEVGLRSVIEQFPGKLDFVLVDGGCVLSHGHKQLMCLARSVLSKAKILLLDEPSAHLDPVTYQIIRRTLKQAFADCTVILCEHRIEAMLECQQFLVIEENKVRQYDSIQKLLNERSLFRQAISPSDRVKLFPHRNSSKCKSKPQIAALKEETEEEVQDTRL

As for `COc1ccc(S(=O)(=O)N2CCC(n3c(-c4cccc(C)c4)nc4cccnc43)CC2)cc1Cl` [Example 23], the maximal response (Emax) is over 80% and the EC50 was under 10 µM.

On to `Cc1ccc2nc(-c3ccccc3Cl)n(C3CCN(S(=O)(=O)c4ccc5c(c4)OCO5)CC3)c2n1` [Example 2], for which the Emax lay within 30 to 80% and the concentration for a half-maximal effect (EC50) is under 10 µM.

On to `COc1ccc(S(=O)(=O)N2CCC(n3c(-c4ccccc4O)nc4cccnc43)CC2)cc1Cl` [Example 9, 2-(3-(1-((3-Chloro-4-methoxyphenyl)sulfonyl)piperidin-4-yl)-3H-imidazo[4,5-b]pyridin-2-yl)phenol], for which the Emax fell in the range of 30 to 80% and the EC50 is under 10 µM.

For `COc1ccc(S(=O)(=O)N2CCC(n3c(-c4ccc(Cl)cc4)nc4cccnc43)CC2)cc1Cl` [Example 29], the Emax fell in the range of 10 to 30% and the EC50 is under 10 µM.

`COc1ccc(S(=O)(=O)N2CCC(n3c(-c4ccccc4)nc4cc(C)cnc43)CC2)cc1Cl` [Example 26]: the Emax lay within 30 to 80% and the 50% effective concentration (EC50) is under 10 µM.

On to `COc1ccc(S(=O)(=O)N2CCC(n3c(C4CCCC4)nc4cccnc43)CC2)cc1Cl` [Example 25], for which the maximum response (Emax) lay within 30 to 80% and the EC50 is under 10 µM.

Regarding `Cc1ccc(S(=O)(=O)N2CCC(n3c(-c4ccccc4Cl)nc4cccnc43)CC2)cc1Cl` [Example 10, 3-(1-((3-Chloro-4-methylphenyl)sulfonyl)piperidin-4-yl)-2-(2-chlorophenyl)-3H-imidazo[4,5-b]pyridine], the Emax lay in the range of 30 to 80% and the EC50 is under 10 µM.

As to `O=S(=O)(c1ccc2c(c1)OCO2)N1CCC(n2c(-c3ccccc3Cl)nc3cccnc32)CC1` [Example 1, 3-(1-(Benzo[d][1,3]dioxol-5-ylsulfonyl)piperidin-4-yl)-2-(2-chlorophenyl)-3H-imidazo[4,5-b]pyridine], the maximal response (Emax) lay within 30 to 80% and the concentration for a half-maximal effect (EC50) is under 10 µM.

As for `Cc1ccc(S(=O)(=O)N2CCC(n3c(-c4ccccc4)nc4cccnc43)CC2)cc1Cl` [Example 20], the Emax fell in the range of 30 to 80% and the EC50 is under 10 µM.

With `COc1ccc(S(=O)(=O)N2CCC(n3c(-c4ccc(C)cc4)nc4cccnc43)CC2)cc1Cl` [Example 24], the maximal effect (Emax) fell in the range of 30 to 80% and the EC50 was under 10 µM.

Regarding `O=S(=O)(c1ccc2c(c1)OCO2)N1CCC(n2c(-c3ccccc3)nc3cccnc32)CC1` [Example 5, 3-(1-(Benzo[d][1,3]dioxol-5-ylsulfonyl)piperidin-4-yl)-2-phenyl-3H-imidazo[4,5-b]pyridine], the Emax is 30 to 80% and the EC50 is under 10 µM.

Regarding `COc1ccc(S(=O)(=O)N2CCC(n3c(-c4ccccc4)nc4cccnc43)CC2)cc1` [Example 19], the Emax is 30 to 80% and the EC50 is under 10 µM.

Consider `COc1ccc(S(=O)(=O)N2CCC(n3c(-c4ccccc4)nc4ccc(C)nc43)CC2)cc1Cl` [Example 3, 3-(1-((3-Chloro-4-methoxyphenyl)sulfonyl)piperidin-4-yl)-5-methyl-2-phenyl-3H-imidazo[4,5-b]pyridine], for which the Emax is 30 to 80% and the EC50 was under 10 µM.

With `COc1ccc(S(=O)(=O)N2CCC(n3c(-c4ccccc4)nc4cccnc43)CC2)cc1Cl` [Example 16], the Emax is over 80% and the EC50 is 10 to 20 µM.

As to `COc1ccc(S(=O)(=O)N2CCC(n3c(-c4cnc[nH]4)nc4cccnc43)CC2)cc1Cl` [Example 32], the Emax fell in the range of 30 to 80% and the EC50 was over 20 µM.

As for `CCc1ccc(S(=O)(=O)N2CCC(n3c(-c4ccccc4)nc4cccnc43)CC2)cc1` [Example 4, 3-(1-((4-Ethylphenyl)sulfonyl)piperidin-4-yl)-2-phenyl-3H-imidazo[4,5b]pyridine], the Emax is 30 to 80% and the EC50 is over 20 µM.

For `COc1cc(S(=O)(=O)N2CCC(n3c(-c4ccccc4)nc4cccnc43)CC2)ccc1Cl` [Example 37], the Emax was 30 to 80% and the EC50 is under 10 µM.

Turning to `COc1ccc(S(=O)(=O)N2CCC(n3c(-c4ccccc4F)nc4cccnc43)CC2)cc1Cl` [Example 11, 3-(1-((3-Chloro-4-methoxyphenyl)sulfonyl)piperidin-4-yl)-2-(2-fluorophenyl)-3H-imidazo[4,5-b]pyridine], the maximum response (Emax) fell in the range of 30 to 80% and the 50% effective concentration (EC50) is under 10 µM.

As for `COc1ccc(S(=O)(=O)N2CCC(n3c(-c4ccncc4)nc4cccnc43)CC2)cc1Cl` [Example 28], the Emax lay within 30 to 80% and the EC50 was under 10 µM.

Regarding `COc1ccc(S(=O)(=O)N2CCC(n3c(-c4ccccc4C)nc4cccnc43)CC2)cc1Cl` [Example 30], the Emax is 30 to 80% and the EC50 was under 10 µM.

For `Cc1ccc2nc(-c3cccnc3Cl)n(C3CCN(S(=O)(=O)c4ccc5c(c4)OC(F)(F)O5)CC3)c2n1` [Example 15, 2-(2-Chloropyridin-3-yl)-3-(1-((2,2-difluorobenzo[d][1,3]dioxol-5-yl)sulfonyl)piperidin-4-yl)-5-methyl-3H-imidazo[4,5-b]pyridine], the maximal response (Emax) fell in the range of 30 to 80% and the EC50 is under 10 µM.
